Test results taken from PubChem BioAssay (NCI).
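Results reflect a 48-hour exposure of cells in 96-well plates to compound at five concentrations. Abbreviation: GI50, concentration required for 50% inhibition of growth. The concentration for full growth arrest is given as TGI.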

The compounds below were run on LOX IMVI melanoma (assay: NCI anticancer screen, dose series, 48 h).

Work on CN1CCN(CC(O)COc2c(Br)c(Br)c(Br)c3c2OC(C)(C)C3)CC1 (stereo unspecified) yielded a GI50 of 1.92 µM.

Going from CN1CCN(CC(O)COc2c(Br)c(Br)c(Br)c3c2OC(C)(C)C3)CC1 (stereo unspecified) to CC1(C)C2CCC13CS(=O)(=O)N1O[C@]13C(=O)O2 (stereo partly specified), the TGI rises from 3.36 µM to greater than 100 µM.

CCCCCCCCCCCCCP(=O)(O)NCC(N)=O and CCCCCCN(N)C(=O)CC#N cannot be ordered by TGI: greater than 100 µM for the first, greater than 100 µM for the second.

Compared with CC1(C)OCC(C(O)C2OC(C)(C)OC2/C=N\O)O1 (stereo unspecified), O=C(O)/C(Cl)=C(\Cl)C(=O)Nc1ccc(Cl)c(Cl)c1Cl is lower in TGI: greater than 100 µM for the first, 31.2 µM for the second.

These compounds were tested on COLO 205 colon (assay: NCI anticancer screen, dose series, 48 h).

In order of falling GI50:
1. N#Cc1ccc(N=Cc2c([O-])ccc3ccccc23)cc1.[C-]#[O+].[C-]#[O+].[Ir]  1.96 µM
2. Cc1c(C2=C(c3cn(C)c4ccccc34)C(=O)NC2=O)c2ccccc2n1C  1.51 µM
3. COc1ccc(/C=N/NC(=O)Cn2c(-c3ccc(S(C)(=O)=O)cc3)nc3cc(Cl)ccc32)cc1  0.907 µM
4. COc1ccc(C2[C@@H](Cl)C(=O)N2c2cc(OC)c(OC)c(OC)c2)cc1Cl (stereo partly specified)  0.203 µM

COc1ccc(/C=N/NC(=O)Cn2c(-c3ccc(S(C)(=O)=O)cc3)nc3cc(Cl)ccc32)cc1 and COc1ccc(C(Cl)=C(c2ccc(OCCN(C)C)cc2)c2ccc(OCCN(C)C)cc2)cc1 are within 1.5-fold of each other in TGI: 2.42 µM for the first, 2.94 µM for the second.

CC1CN1c1c(C(=O)/C=C/c2ccccc2)c(-c2ccccc2)nn(C)c1=O (stereo unspecified) and CN(C)CCC(/C=C/c1ccccc1)=N\Nc1ccc(Cl)cc1Cl are within 1.5-fold of each other in TGI: 29.7 µM for the first, 28.1 µM for the second.

Going from c1ccc(P(=Nc2ccccc2N=P(c2ccccc2)(c2ccccc2)c2ccccc2)(c2ccccc2)c2ccccc2)cc1 to O=P1(Oc2ccccc2)C(c2ccccc2)C(c2ccccc2)=NN1c1ccccc1 (stereo unspecified), the TGI rises from 3.04 µM to 36.4 µM (12-fold).

COCCOCOc1ccc(OCOCCOC)c2c1C(=O)c1ccccc1C2=O and CCOC1=C2N=C(Cc3ccccc3F)N=C2C(=O)c2ccccc21 cannot be ordered by TGI: greater than 100 µM for the first, greater than 100 µM for the second.

CCO/C=C1\N=C(c2ccccc2Br)OC1=O and Cc1cc(N(CCC#N)CCC#N)ccc1/C=C1/N=C(c2ccccc2)N(N)C1=O cannot be ordered by TGI: greater than 100 µM for the first, greater than 100 µM for the second.

First: COc1ccc(C2[C@@H](Cl)C(=O)N2c2cc(OC)c(OC)c(OC)c2)cc1Cl (stereo partly specified)
Second: COc1cc2nc(NCCCCCNC(=O)c3ccco3)nc(N)c2cc1OC
The TGI of the first is 75-fold lower: 0.512 µM for the first, 38.2 µM for the second.

Compared with CCOC(=O)C(=O)Nc1cc(Cl)ccc1Cl, O=C(O)/C(Cl)=C(\Cl)C(=O)Nc1ccc(Cl)c(Cl)c1Cl is lower in TGI: greater than 100 µM for the first, 34.8 µM for the second.

Compared with N#Cc1ccc(N=Cc2c([O-])ccc3ccccc23)cc1.[C-]#[O+].[C-]#[O+].[Ir], CN(C)c1ccc(/C=C2\C=Cc3ccccc32)cc1 is higher in TGI: 4 µM for the first, greater than 100 µM for the second.

[N-]=[N+]=C1C(=O)C2CC3CC(C2)CC1C3 and Cc1ccc(S(=O)OC2C3CC4CC(C3)CC2C4)cc1 (stereo unspecified) cannot be ordered by TGI: greater than 100 µM for the first, greater than 100 µM for the second.

COC(=O)CC1NC(=O)C1C1(C)OCCO1 (stereo unspecified) and C=C1CCC2[C@@H](CCC3[C@]2(C)CCC[C@]3(C)C(=O)OC)[C@@H]1CC=O (stereo partly specified) cannot be ordered by TGI: greater than 100 µM for the first, greater than 100 µM for the second.

COC(CN1C=C(Sc2ccccc2)CC1)OC and COc1ccc(C=O)c(NC(=O)C(C)C)c1 are within 1.5-fold of each other in TGI: 47.4 µM for the first, 34.1 µM for the second.

Cc1cc2c(c(C(=O)O)c1C)-c1cccc(F)c1C2=O and Cc1c(C2=C(c3cn(C)c4ccccc34)C(=O)NC2=O)c2ccccc2n1C cannot be ordered by TGI: greater than 100 µM for the first, greater than 25 µM for the second.

First: C/C=C(\C)c1cc(O)c(C)c2c1Oc1cc(O)c(Cl)c(C)c1C(=O)O2
Second: COC(=O)C(C)(C)N=CN(C)C
The TGI of the first is lower: 49.3 µM for the first, greater than 100 µM for the second.

CNS(=O)(=O)NNS(=O)(=O)c1ccc(Cl)cc1 and CC1(C)C2CCC13CS(=O)(=O)N1O[C@]13C(=O)O2 (stereo partly specified) cannot be ordered by TGI: greater than 100 µM for the first, greater than 100 µM for the second.

CCCCCCCCCCCCCP(=O)(O)NCC(N)=O and CCCCCCN(N)C(=O)CC#N cannot be ordered by TGI: greater than 100 µM for the first, greater than 100 µM for the second.

CN1COc2c(n(C)c(=O)[nH]c2=O)C1 and CC1(C)OCC(C(O)C2OC(C)(C)OC2/C=N\O)O1 (stereo unspecified) cannot be ordered by TGI: greater than 100 µM for the first, greater than 100 µM for the second.

These compounds were tested on SK-MEL-28 melanoma (assay: NCI anticancer screen, dose series, 48 h).

Going from COc1ccc(/C=N/NC(=O)Cn2c(-c3ccc(S(C)(=O)=O)cc3)nc3cc(Cl)ccc32)cc1 to N#Cc1ccc(N=Cc2c([O-])ccc3ccccc23)cc1.[C-]#[O+].[C-]#[O+].[Ir], the GI50 rises from 4.48 µM to 10.4 µM (2.3-fold).

Compared with COc1ccc(C2[C@@H](Cl)C(=O)N2c2cc(OC)c(OC)c(OC)c2)cc1Cl (stereo partly specified), Cc1c(C2=C(c3cn(C)c4ccccc34)C(=O)NC2=O)c2ccccc2n1C is higher in GI50: 0.654 µM for the first, greater than 22.3 µM for the second.

In the case of CN1CCN(CC(O)COc2c(Br)c(Br)c(Br)c3c2OC(C)(C)C3)CC1 (stereo unspecified), the GI50 is reported as 1.85 µM.

Compared with COc1ccc(/C=N/NC(=O)Cn2c(-c3ccc(S(C)(=O)=O)cc3)nc3cc(Cl)ccc32)cc1, COc1ccc(C(Cl)=C(c2ccc(OCCN(C)C)cc2)c2ccc(OCCN(C)C)cc2)cc1 is lower in TGI: greater than 50 µM for the first, 3.11 µM for the second.

Compared with CC1CN1c1c(C(=O)/C=C/c2ccccc2)c(-c2ccccc2)nn(C)c1=O (stereo unspecified), CN(C)CCC(/C=C/c1ccccc1)=N\Nc1ccc(Cl)cc1Cl is 1.7-fold lower in TGI: 47.5 µM for the first, 27.3 µM for the second.

Going from c1ccc(P(=Nc2ccccc2N=P(c2ccccc2)(c2ccccc2)c2ccccc2)(c2ccccc2)c2ccccc2)cc1 to O=P1(Oc2ccccc2)C(c2ccccc2)C(c2ccccc2)=NN1c1ccccc1 (stereo unspecified), the TGI falls from greater than 100 µM to 64.2 µM.

COCCOCOc1ccc(OCOCCOC)c2c1C(=O)c1ccccc1C2=O and CCOC1=C2N=C(Cc3ccccc3F)N=C2C(=O)c2ccccc21 cannot be ordered by TGI: greater than 100 µM for the first, greater than 100 µM for the second.

CCO/C=C1\N=C(c2ccccc2Br)OC1=O and Cc1cc(N(CCC#N)CCC#N)ccc1/C=C1/N=C(c2ccccc2)N(N)C1=O cannot be ordered by TGI: greater than 100 µM for the first, greater than 100 µM for the second.

Compared with COc1ccc(C2[C@@H](Cl)C(=O)N2c2cc(OC)c(OC)c(OC)c2)cc1Cl (stereo partly specified), COc1cc2nc(NCCCCCNC(=O)c3ccco3)nc(N)c2cc1OC is 2.4-fold lower in TGI: 87.3 µM for the first, 36.2 µM for the second.

Compared with CCOC(=O)C(=O)Nc1cc(Cl)ccc1Cl, O=C(O)/C(Cl)=C(\Cl)C(=O)Nc1ccc(Cl)c(Cl)c1Cl is lower in TGI: greater than 100 µM for the first, 42.7 µM for the second.

First: N#Cc1ccc(N=Cc2c([O-])ccc3ccccc23)cc1.[C-]#[O+].[C-]#[O+].[Ir]
Second: CN(C)c1ccc(/C=C2\C=Cc3ccccc32)cc1
The TGI of the first is lower: 22.1 µM for the first, greater than 100 µM for the second.

[N-]=[N+]=C1C(=O)C2CC3CC(C2)CC1C3 and Cc1ccc(S(=O)OC2C3CC4CC(C3)CC2C4)cc1 (stereo unspecified) cannot be ordered by TGI: greater than 100 µM for the first, greater than 100 µM for the second.

Going from COC(=O)CC1NC(=O)C1C1(C)OCCO1 (stereo unspecified) to C=C1CCC2[C@@H](CCC3[C@]2(C)CCC[C@]3(C)C(=O)OC)[C@@H]1CC=O (stereo partly specified), the TGI falls from greater than 100 µM to 91.8 µM.

COC(CN1C=C(Sc2ccccc2)CC1)OC and COc1ccc(C=O)c(NC(=O)C(C)C)c1 cannot be ordered by TGI: greater than 100 µM for the first, greater than 100 µM for the second.

Cc1cc2c(c(C(=O)O)c1C)-c1cccc(F)c1C2=O and Cc1c(C2=C(c3cn(C)c4ccccc34)C(=O)NC2=O)c2ccccc2n1C cannot be ordered by TGI: greater than 100 µM for the first, greater than 25 µM for the second.

Compared with C/C=C(\C)c1cc(O)c(C)c2c1Oc1cc(O)c(Cl)c(C)c1C(=O)O2, COC(=O)C(C)(C)N=CN(C)C is higher in TGI: 72.2 µM for the first, greater than 100 µM for the second.

First: CN1CCN(CC(O)COc2c(Br)c(Br)c(Br)c3c2OC(C)(C)C3)CC1 (stereo unspecified)
Second: CN1COc2c(n(C)c(=O)[nH]c2=O)C1
The TGI of the first is lower: 3.48 µM for the first, greater than 100 µM for the second.

CNS(=O)(=O)NNS(=O)(=O)c1ccc(Cl)cc1 and CC1(C)C2CCC13CS(=O)(=O)N1O[C@]13C(=O)O2 (stereo partly specified) cannot be ordered by TGI: greater than 100 µM for the first, greater than 100 µM for the second.

CCCCCCCCCCCCCP(=O)(O)NCC(N)=O and CCCCCCN(N)C(=O)CC#N cannot be ordered by TGI: greater than 100 µM for the first, greater than 100 µM for the second.

For CC1(C)OCC(C(O)C2OC(C)(C)OC2/C=N\O)O1 (stereo unspecified), the TGI was greater than 100 µM.
